A short description of data set [1]: Measurement of particle size, polydispersity index and zeta potential of lipid nanoparticle (Zetasizer). The format is physicochemical. The conditions noted are these: lipid nanoparticle containing siRNA; for Particle size (nm) / PDI: main lipid/DPPC/cholesterol=45/10/45; for Particle size (nm): Z-average in ultrapure water; for PDI: ultrapure water; for Zeta potential (mV): pH 7.4 Tris-HCl. Here is the method: 30 μL of each of the dialyzed lipid nanoparticle-containing solutions obtained by the above operation was measured out, 800 μL of ultrapure water was added to dilute the lipid nanoparticle-containing solution, and the diluted preparation solution was used to measure the particle size (nm) and the polydispersity index (PDI) by using a Zetasizer (manufactured by Malvern Panalytical, Zetasizer nano Ultra). The particle size was evaluated by Z-average in ultrapure water. The zeta potential was measured by using pH 7.4 Tris-HCl as a dilute solution.

The nature of data set [2]: siRNA / mRNA encapsulation rate of lipid nanoparticle (RiboGreen). The format is physicochemical. Conditions: siRNA encapsulation rate of lipid nanoparticle. Here is the method: The siRNA encapsulation rate and the mRNA encapsulation rate of the lipid nanoparticle were obtained as follows. First, a surfactant (Sigma-Aldrich, Triton (registered trademark), X-100 (reducing type)) was added to the lipid nanoparticle-containing solution to disrupt the lipid nanoparticle to release the encapsulated siRNA or mRNA. The amounts of the lipid nanoparticle-containing solution and the surfactant were adjusted such that the siRNA or the mRNA was 2 pmol and the surfactant was 1% in 40 μL of the solution after adding the surfactant to the lipid nanoparticle-containing solution. Next, the RiboGreen reagent (reagent that reacts with siRNA to emit fluorescence, manufactured by Thermo Fisher Scientific, Quant-iT (registered trademark) RiboGreen (registered trademark) RNA Assay Kit) was added to the solution, and the fluorescence intensity was measured under conditions of an excitation wavelength of 480 nm and a fluorescence wavelength of 520 nm with a fluorescence intensity meter (manufactured by TECAN, Infinite M200). Specifically, 75 μL of the RiboGreen reagent diluted to 1/2000 was added to a diluted solution obtained by adding 65 μL of citrate buffer to 10 μL of the solution, and the fluorescence intensity was measured. This makes it possible to relatively measure the total amount of the siRNA or the total amount of the mRNA present in the solution.
Subsequently, the RiboGreen reagent was added to the lipid nanoparticle-containing solution without adding a surfactant, and the fluorescence intensity was measured in the same manner with a fluorescence intensity meter. By not adding a surfactant, it is possible to relatively measure the amount of the siRNA or the mRNA free in the solution without being encapsulated in the lipid nanoparticle.
Then, the fluorescence intensity obtained from the solution to which the surfactant was added obtained as described above was fluorescence intensity a, and the fluorescence intensity thus obtained from the solution to which no surfactant was added obtained as described above was fluorescence intensity b, and according to the expression (a−b)/a×100, the siRNA encapsulation rate (%) or the mRNA encapsulation rate (%) of the lipid nanoparticle was obtained. Each of fluorescence intensity a and fluorescence intensity b is a value obtained by subtracting a blank from the arithmetic average value of the results of three measurements for each solution. The blank was measured by carrying out the same operation on a well containing water containing no cell or lipid nanoparticle.

In data set [3] the test system is HT1080-EGFP (human/fibrosarcoma) cells. The data set can be described thus: Evaluation of knockdown effect (GFP assay), Cell experiment 1. The format is cell-based. Conditions: lipid nanoparticle containing siRNA against EGFP; fluorescence intensity with control cells without lipid nanoparticle set at 100. Here is the method:
A cell experiment was carried out by using HT1080-EGFP (human/fibrosarcoma) cells in order to evaluate lipid nanoparticles encapsulating an siRNA produced by using the lipids of the Examples and the Comparative Examples. These cells are cells provided with a green fluorescent protein gene (EGFP). The expression of EGFP can be easily confirmed by measuring the fluorescence intensity of a solution in which the cells are lysed, and thus by acting lipid nanoparticles encapsulating an siRNA that suppresses the expression of EGFP and observing any decrease in fluorescence intensity, the performance of the lipid nanoparticles used can be evaluated. Hereinafter, the procedure of the cell experiment will be shown.
(§1) A. Provision of Cells • (i) A liquid medium (DMEM/Ham's F12, FBS+, P/S+) (FBS: fetal bovine serum, P/S: antibiotic) was taken out from a refrigerator and temperature-controlled in an incubator set at 37° C. • (ii) A cryotube containing the cells was taken out from a −80° C. freezer and thawed at once in an incubator set at 37° C. • (iii) A stock solution of the thawed cells was collected in a capped test tube. • (iv) The tube containing the cells was washed with the liquid medium, and the wash was also collected in the test tube. • (v) The tube was subjected to a centrifuge to precipitate the cells. • (vi) The supernatant was aspirated, and the liquid medium was added and gently tapped to disperse the cells. • (vii) A small amount of the cells-dispersed liquid medium was collected, and the number of cells was observed and counted under a microscope. • (viii) The cells were seeded in a 24-well plate such that the number of cells was 2×10^4 cells per well. For the plate for an LDH assay described later, the cells were seeded in a 96-well plate such that the number of cells was 4×10^3 cells per well. • (ix) The 24-well plate or the 96-well plate was placed in an incubator, and the cells were cultured for 24 hours under conditions of 37° C. and 5% CO2.
(§2) The produced lipid nanoparticles were introduced into cells. • (i) Fetal bovine serum (FBS) was added to a liquid medium (FBS-, P/S-) temperature-controlled as in (i) of A above, in such a way as to reach 10%. • (ii) A 24-well plate was taken out from an incubator, and the liquid medium supernatant in the 24-well plate was aspirated and washed with phosphate buffered saline (PBS). • (iii) 400 μL of the liquid medium produced in (i) above was added to the washed 24-well plate. In addition, 100 μL of an LNP solution having an adjusted concentration was added. • (iv) The 24-well plate was placed in the incubator, and the cells were cultured (for 24 hours). • (v) After 24 hours, the liquid medium supernatant in the 24-well plate was aspirated, and 500 μL of a liquid medium containing 10% FBS (FBS+/P/S+) was added. • (vi) The 24-well plate was placed in the incubator, and the cells were cultured for 24 hours under conditions of 37° C. and 5% CO2.
By carrying out a GFP assay, the EGFP expression level in cells was measured to evaluate the effect of knocking down the green fluorescent protein gene (EGFP) by lipid nanoparticles. • (i) A 24-well plate was taken out from an incubator and washed with PBS. • (ii) A 1% octylglucoside solution to which a protease inhibitor was added was added in order to disrupt cells. Stirring with a pipette lysed the cells. • (iii) The cell lysate was transferred to an Eppendorf tube and subjected to a centrifuge. • (iv) 150 μL of the supernatant was collected and added to a plate for fluorescence measurement. • (v) The fluorescence intensity was measured under conditions of an excitation wavelength of 485 nm and a fluorescence wavelength of 535 nm with a plate reader (manufactured by TECAN, Infinite M200). The fluorescence intensity was calculated with the fluorescence intensity of control cells to which no lipid nanoparticle was added set at 100.

The test system is the same in data set [4]. Put plainly: Evaluation of toxicity: CCK-8 assay. It counts as cell-based. The conditions noted are these: lipid nanoparticle containing siRNA; absorbance relative to control cells without lipid nanoparticle set at 1.00. The procedure: as §1, §2
For Examples 1 to 9, a CCK-8 assay or an LDH assay was carried out to measure the metabolic activity of viable cells and relatively quantify the number of surviving cells to evaluate the toxicity of lipid nanoparticles.
(a) CCK-8 Assay • (i) Fetal bovine serum (FBS) and a viable cell counting kit (manufactured by DOJINDO LABORATORIES, Cell Count Kit-8) was added to a liquid medium (FBS-, P/S-) temperature-controlled as in (i) of A above, such that FBS was 10% and the kit was 10%. • (ii) A 24-well plate was taken out from an incubator. The liquid medium was removed, and 315 μL of the liquid medium containing the viable cell counting kit produced in (i) above was added. • (iii) The liquid medium was aged for 1 hour in the incubator. • (iv) The 24-well plate was taken out, and the absorbance was measured under conditions of a measurement wavelength of 450 nm and a target wavelength of 630 nm with a plate reader (manufactured by TECAN, Infinite M200). The absorbance was calculated with the absorbance of control cells to which no lipid nanoparticle was added set at 1.00. When the obtained value was 0.80 or more and 1.00 or less, a rating of double-circle (excellent) was given, when the obtained value was 0.50 or more and less than 0.80, a rating of circle (good) was given, when the obtained value was 0.20 or more and less than 0.50, a rating of triangle (fair) was given, and when the obtained value was less than 0.20, a rating of X-mark (poor) was given.
On the technique in general: Tetrazolium assays rely on reduction of a dye to a coloured formazan, in cell work by metabolically active cells.

As to `CCCCCCCC/C=C\CCCCCCCCC(CCCCCCC/C=C\CCCCCCCC)OC(=O)C(CCC(=O)O)NC(=O)C(N)Cc1c[nH]cn1` (stereo not drawn) [Example 9, 4-(2-amino-3-(1H-imidazol-4-yl)propanamido)-5-(((9Z,27Z)-hexatriaconta-9,27-dien-18-yl)oxy)-5-oxopentanoic acid], in data set [1], the “Particle size (nm)” value was 107.6 nm, the PDI is 0.093 and the “Zeta potential (mV)” value was 24.6 mV. For the same compound, the “Encapsulation rate (%)” value in data set [2] was 84%. For the same compound, the “GFP Assay” value in data set [3] is 56. For the same compound, the “CCK Assay” value in data set [4] is “⊚ (When the obtained value was 0.80 or more and 1.00 or less, a rating of double-circle (excellent) was given)”.
For the compound `CCCCCCCC/C=C\CCCCCCCCC(CCCCCCC/C=C\CCCCCCCC)OC(=O)C(CC(=O)O)NC(=O)C(N)CCCCN` (stereo not drawn) [Example 7, 3-(2,6-diaminohexanamido)-4-(((9Z,27Z)-hexatriaconta-9,27-dien-18-yl)oxy)-4-oxobutanoic acid], in data set [1], the “Particle size (nm)” value is 94.2 nm, the PDI was 0.159 and the “Zeta potential (mV)” value worked out at 8.28 mV. For the same compound, the “Encapsulation rate (%)” value in data set [2] was 100%. Moreover, the “GFP Assay” value in data set [3] was 28. In addition, in data set [4], the “CCK Assay” value is “◯ (when the obtained value was 0.50 or more and less than 0.80, a rating of circle (good) was given)”.
For `CCCCCCCC/C=C\CCCCCCCCC(CCCCCCC/C=C\CCCCCCCC)OC(=O)C(CCC(=O)O)NC(=O)C(N)CCCCN` (stereo not drawn) [Example 8, 4-(2,6-diaminohexanamido)-5-(((9Z,27Z)-hexatriaconta-9,27-dien-18-yl)oxy)-5-oxopentanoic acid], in data set [1], the “Particle size (nm)” value stood at 162.5 nm, the PDI is reported as 0.147 and the “Zeta potential (mV)” value was 19.1 mV. For the same compound, the “Encapsulation rate (%)” value in data set [2] was determined as 100%. Besides, in data set [3], the “GFP Assay” value was determined as 47. For the same compound, in data set [4], the “CCK Assay” value was “⊚ (When the obtained value was 0.80 or more and 1.00 or less, a rating of double-circle (excellent) was given)”.

Values taken from patent US20240148664A1, “LIPID AND COMPOSITION” (SOGO PHARMACEUTICAL CO., LTD., priority 2021, published 2024).
